Earlier results on 1 molecule are cited in patent US20170022147A1, “FUMARATE COMPOUNDS, PHARMACEUTICAL COMPOSITIONS THEREOF, AND METHODS OF USE” (priority 2015, published 2017).

Regarding `COC(=O)/C=C/C(=O)OC` [DMF, dimethylfumarate], the aqueous solubility entry is on record as “poor”.
